In patent US20150152070A1, “METHODS OF PEST CONTROL IN SOYBEAN” (Syngenta Participations AG, priority 2012, published 2015):

System: Euschistus heros (Neotropical Brown Stink Bug)
Test: Euschistus heros (Neotropical Brown Stink Bug) contact/feeding activity on sprayed soybean plants
Format: in vivo
Details: comparative example, mortality 5 days after infestation
Method: Euschistus heros (Neotropical Brown Stink Bug) (Contact/Feeding Activity)
2 week old soybean plants are sprayed in a turn table spray chamber with the diluted spray solutions. After drying, 2 soybean seeds are added and plants are infested with 10 N-2 nymphs of the neotropical brown stink bug Euschistus heros in plastic test boxes. Boxes are incubated in a climate chamber at 25° C. and 60% RH. Evaluation is done 5 days after infestation on mortality.

Compound: O=C(CC(F)(F)F)NC1CCc2cc(C3=NOC(c4cc(Cl)cc(Cl)c4)(C(F)(F)F)C3)ccc21 (stereo not drawn) [Compound of the invention]
- Control/% (application rate 3.0 ppm): 75%
- Control/% (application rate 12.5 ppm): 100%
- Control/% (application rate 50 ppm): 100%

Compound: O=C(NCC(F)(F)F)N1CCc2cc(C3=NOC(c4cc(Cl)cc(Cl)c4)(C(F)(F)F)C3)ccc21 (stereo not drawn) [Reference compound]
- Control/% (application rate 3.0 ppm): 0%
- Control/% (application rate 12.5 ppm): 0%
- Control/% (application rate 50 ppm): 5%
